pIC50: −log10 of the molar value.
Biological target: Phospholipase D2 (Homo sapiens) + Phospholipase D2 (Homo sapiens) (UniProt O14939+O14939)
Experiment: phospholipase D2 biochemical inhibition IC50 – assay 3B, library 32, dose response (AID 624000)
Conditions: purified PLD2 enzyme activity

Chain of Phospholipase D2 (Homo sapiens) + Phospholipase D2 (Homo sapiens) (O14939 whole entry, looked up): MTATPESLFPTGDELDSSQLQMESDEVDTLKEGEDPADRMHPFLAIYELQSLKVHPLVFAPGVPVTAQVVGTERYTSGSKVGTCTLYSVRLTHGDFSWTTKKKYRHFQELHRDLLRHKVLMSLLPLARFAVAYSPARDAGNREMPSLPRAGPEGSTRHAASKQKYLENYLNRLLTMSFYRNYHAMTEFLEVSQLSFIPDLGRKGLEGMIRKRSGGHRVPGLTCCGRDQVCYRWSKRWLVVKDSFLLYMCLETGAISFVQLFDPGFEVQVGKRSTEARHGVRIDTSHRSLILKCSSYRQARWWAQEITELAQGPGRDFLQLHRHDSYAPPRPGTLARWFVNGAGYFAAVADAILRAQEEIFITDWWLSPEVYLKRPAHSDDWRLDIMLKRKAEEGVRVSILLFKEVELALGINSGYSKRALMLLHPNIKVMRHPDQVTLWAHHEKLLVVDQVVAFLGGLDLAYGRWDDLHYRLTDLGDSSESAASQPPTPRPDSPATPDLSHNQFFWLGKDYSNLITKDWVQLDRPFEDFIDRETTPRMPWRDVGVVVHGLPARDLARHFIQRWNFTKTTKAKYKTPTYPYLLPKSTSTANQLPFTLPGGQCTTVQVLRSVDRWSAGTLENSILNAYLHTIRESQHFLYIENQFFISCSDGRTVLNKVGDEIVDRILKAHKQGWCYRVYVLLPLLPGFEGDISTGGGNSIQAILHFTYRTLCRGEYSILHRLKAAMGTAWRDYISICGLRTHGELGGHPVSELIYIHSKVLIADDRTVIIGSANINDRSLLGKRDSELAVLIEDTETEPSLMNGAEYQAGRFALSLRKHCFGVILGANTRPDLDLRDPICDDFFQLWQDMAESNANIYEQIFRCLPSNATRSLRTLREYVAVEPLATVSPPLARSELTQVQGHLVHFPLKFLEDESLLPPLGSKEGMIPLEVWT
Chain of Phospholipase D2 (Homo sapiens) + Phospholipase D2 (Homo sapiens) (O14939 whole entry, looked up): as above

Row | Compound | pIC50
1 | COc1cc(C(=O)NCCN2CCC3(CC2)C(=O)NCN3c2cccc(F)c2)cc(OC)c1OC | 5.84
2 | C[C@@H](CN1CCC2(CC1)C(=O)NCN2c1cccc(F)c1)NC(=O)c1ccc(Br)cc1 | 7.08

Reference: PubChem BioAssay AID624000 (Vanderbilt Specialized Chemistry Center, 2012)
